Test results as given in patent US10041937B2, “Macrophage identification agent, and identification method, sorting method, evaluation method, screening method and kit using the macrophage identifier agent” (CANON KABUSHIKI KAISHA, priority 2013, dated 2018).

Experiments:
[1] = test system: M1 macrophages and M2 macrophages differentiated from RAW264.7 cells; experiment: Identification of macrophage subtypes differentiated from mouse cell line RAW264.7; assay type: cell-based; conditions: RAW264.7 derived M1 and M2
Protocol: The subtypes were identified by using the compound (1) in the same manner as in Example 1 except that the macrophage subtypes differentiated from the mouse bone marrow cells were changed to macrophage subtypes differentiated from a cell line established from mouse monocytic leukemia.
The culture of subtypes was performed with reference to NPL 9. Specifically, RAW264.7 cells purchased from American Type Culture Collection, that is, a cell line established from mouse monocytic leukemia, were subcultured several times, and the resultant cells were dispersed to a concentration of 3.3×10^4/mL in a D-MEM containing 10% FBS, 1% P/S and 1% MEM-NEAA, and 3.3×10^5 cells were seeded in a 100 mm dish. The cells were grown by incubation performed in the presence of 5% CO2 at 37° C. After 2 to 4 days, it was confirmed that an area of about to 70% of the bottom of the dish had been covered by the cells, the medium was then exchanged, and by adding 200 ng of interferon-γ and 1 μg of polyliposaccharide (both manufactured by Pepro Tech) to the medium, the cells were differentiated to the subtype M1. Besides, by adding 100 ng of IL-4, the cells were differentiated to the subtype M2. […]
A histogram was prepared by plotting fluorescence intensity obtained in the FITC channel on the abscissa and plotting the number of cells at each fluorescence intensity on the ordinate, which is shown in FIG. 9.

[2] = test system: M1 macrophages and M2 macrophages differentiated from mouse bone marrow cells; experiment: Subtype identification by staining and flow cytometry of M1 and M2 macrophages differentiated from mouse bone marrow cells; assay type: cell-based, Balb/c mouse
Summary of the method: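 Balb/c mouse bone marrow cells were differentiated to macrophages with 50 ng/mL M-CSF over two 3–4-day periods, then polarized for 3 days to M1 (interferon-γ plus polyliposaccharide) or M2 (IL-4). Live cells (aqua dye-negative) were analysed by flow cytometry; resolution R = |FM1−FM2|/(WM1+WM2) from histogram peak positions and widths indexed subtype discrimination.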

[3] = fluorescence intensity at peak top of histogram, compound 1 μM, 37° C., 30 minutes

Structure (SMILES): CCOC(=O)CCN1C(=O)/C(=C\c2ccc3c(c2)C2CCCC2N3CC)SC1=S (stereo not drawn) [compound (1)]
- subtype more strongly stained [1]: the M1 macrophages were stained more strongly than the M2 macrophages
- Resolution ratio R ([2]; R=|FM1−FM2|/(WM1+WM2), compound 1 μM): 1.150
- Peak position of M1 macrophage [2, 3]: 85.8
- Peak position of M2 macrophage [2, 3]: 12.4
- Evaluation of macrophage subtype identification ([2]; rated from resolution R): A (The compound is very good in the subtype identification (namely, the resolution R is 0.5 or more))
- subtype more strongly stained ([2]; two compounds used in combination, each 1 μM): the M1 macrophages are more strongly stained than the M2 macrophages
